What was measured:
[1] = tested on: 19-month-old male Fischer 344 rats; assay: Morris Water Maze, working memory version, in aged rats on pterostilbene diet; format: in vivo, rat; conditions: for distance to find the platform, Trial 1 vs Trial 2: days 3 and 4; for latency to find the platform, Trial 1 vs Trial 2: days 3 and 4, ninth week
Text: Forty-two 19-month-old male Fischer 344 rats were obtained from the NIA colony (Harlan Sprague Dawley, Indianapolis, Ind.). The rats were individually housed in stainless steel mesh suspended cages, provided food and water ad libitum, and maintained on a 12-hour light/dark cycle. The rats were given one week to adjust to their new environment, after which time they were weight matched and then randomly placed on one of three diets for 12-13 weeks total (n=14/group): control, low dose pterostilbene (0.004%, equivalent to 2.5 mg/kg body weight), or high dose pterostilbene (0.016%, equivalent to 10 mg/kg body weight). All animals were observed daily for clinical signs of disease.
The pterostilbene diets were prepared at Harlan Teklad (Madison, Wis.) by adding crystalline pterostilbene to the control diet, of 40 mg/kg diet, 0.004% w/w for low dose, 160 mg/kg diet, 0.016% w/w for high dose. The amount of corn in the control diet was adjusted to compensate for the added volume of the pterostilbene. The rats were maintained on either the control or pterostilbene diet for eight weeks before motor testing and nine weeks before cognitive testing at 21 months.
The Morris Water Maze (MWM) is a method to test spatial learning and memory of subjects. Developed by Richard Morris, the MWM is an age and diet sensitive learning paradigm that requires a subject to locate a hidden platform (10 cm in diameter) positioned below the surface (2 cm) of a circular pool of water (134 cm in diameter×50 cm in height, maintained at 23° C.) based on distal cues, and to remember its location from the previous trial. Accurate navigation is rewarded with escape from the water onto the platform, for which the subject uses distal cues such as posters, the experimenter, a computer, cage racks, to effectively locate. The working memory version of the MWM (Brandeis et al., 1989. Int J Neurosci. 48:29-69 Morris R., 1984. J Neurosci Methods. 11; 47-60.) was performed daily for four consecutive days during the ninth week of treatment, with a morning and an afternoon session, two trials each session, with a 10 minute inter-trial interval between the two trials. Rats were tested in a random manner, with the restriction that one subject from each group be tested in succession. At the beginning of each trial, the subject was gently immersed in the water at one of four randomized start locations. […] Once the subject reached the platform, it remained there for 15 sec (Trial 1; reference memory or acquisition trial). The subject was returned to its home cage between trials (10 min). Trial 2 (the working memory or retrieval trial) used the same platform location and start position as Trial 1. Performances were videotaped and analyzed with image tracking software (HVS Image, UK), which allows measurements of latency (sec) time to find the platform), path length (cm), and swimming speed (cm/sec; […]). A detailed description of the maze and the paradigm used is disclosed in Shukitt-Hale et al., 1998. Experimental Gerontology, 33:615-624, and incorporated herein by reference.

[2] = target: T1, peroxisome proliferator-activated alpha isoform, (PPARα) (Homo sapiens, UniProt Q07869); conditions: Rimando et al., 2005; cited from earlier work
T1 sequence (Q07869 1-468): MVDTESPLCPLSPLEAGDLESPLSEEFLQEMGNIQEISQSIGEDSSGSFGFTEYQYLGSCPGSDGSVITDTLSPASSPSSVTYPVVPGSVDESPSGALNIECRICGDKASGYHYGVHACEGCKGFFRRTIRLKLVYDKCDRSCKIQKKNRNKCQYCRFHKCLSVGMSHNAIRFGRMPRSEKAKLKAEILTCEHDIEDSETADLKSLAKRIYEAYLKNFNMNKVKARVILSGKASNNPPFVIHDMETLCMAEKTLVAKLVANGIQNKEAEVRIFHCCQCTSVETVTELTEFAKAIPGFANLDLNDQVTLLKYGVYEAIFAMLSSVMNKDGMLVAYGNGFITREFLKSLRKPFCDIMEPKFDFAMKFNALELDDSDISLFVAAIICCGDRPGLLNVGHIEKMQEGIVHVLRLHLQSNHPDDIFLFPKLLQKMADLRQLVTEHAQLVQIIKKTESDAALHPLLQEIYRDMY

[3] = target: T2, cyclooxygenase-2 (Homo sapiens, UniProt P35354); conditions: Rimando et al., 2002; cited from earlier work
T2 sequence (P35354 18-604): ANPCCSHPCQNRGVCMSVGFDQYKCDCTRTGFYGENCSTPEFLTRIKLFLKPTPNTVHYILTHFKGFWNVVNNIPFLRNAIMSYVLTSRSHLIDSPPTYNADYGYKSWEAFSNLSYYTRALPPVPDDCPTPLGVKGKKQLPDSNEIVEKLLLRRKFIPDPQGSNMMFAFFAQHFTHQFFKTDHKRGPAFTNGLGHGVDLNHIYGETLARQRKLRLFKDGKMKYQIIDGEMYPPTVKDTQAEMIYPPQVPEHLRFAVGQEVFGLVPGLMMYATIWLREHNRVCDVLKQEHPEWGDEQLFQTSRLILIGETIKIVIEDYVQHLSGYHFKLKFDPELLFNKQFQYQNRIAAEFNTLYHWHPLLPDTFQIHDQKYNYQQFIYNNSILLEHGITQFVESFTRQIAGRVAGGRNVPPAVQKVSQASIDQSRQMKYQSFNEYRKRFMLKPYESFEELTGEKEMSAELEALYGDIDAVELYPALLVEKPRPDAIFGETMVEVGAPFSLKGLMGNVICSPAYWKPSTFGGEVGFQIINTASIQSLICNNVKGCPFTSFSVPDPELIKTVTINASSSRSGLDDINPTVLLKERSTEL

[4] = high dose diet 0.016% (10 mg/kg body weight)

In the case of `COc1cc(/C=C/c2ccc(O)cc2)cc(OC)c1` [pterostilbene, trans-3,5-dimethoxy-4′-hydroxystilbene], the “latency or distance to find the platform between the diet groups” value ([1]; Trial 1 or Trial 2, low and high dose vs control diet) is reported as “no differences in latency or distance to find the platform”, the “distance to find the platform, Trial 1 vs Trial 2” value [1, 4] is reported as “significant (p<0.05) differences in distance” and the “latency to find the platform, Trial 1 vs Trial 2” value [1, 4] is reported as “significant (p<0.05) difference in latency”. For the same compound, the “distance to find the platform, Trial 1 vs Trial 2” value ([1]; low dose diet 0.004% (2.5 mg/kg body weight)) was “significant (p<0.05) differences in distance”, the “latency to find the platform, Trial 1 vs Trial 2” value ([1]; low dose diet 0.004% (2.5 mg/kg body weight), p=0.09) was “tended to improve from Trial 1 to Trial 2” and the “spatial memory performance compared to control diet fed group” value ([1]; pterostilbene diets (low and high dose)) was “improved spatial memory performance”. The “activation of PPARα” value [2] was “identified to activate” and the “inhibition of cyclooxygenase-2” value [3] was “weak inhibition”.
